Results from PMC11253855, “Phosphonodiamidate prodrugs of phosphoantigens (ProPAgens) exhibit potent Vγ9/Vδ2 T cell activation and eradication of cancer cells” (RSC Medicinal Chemistry, 2024).
Like-named read-outs stand apart in the source and are kept apart here.

How the values were obtained:
Vγ9/Vδ2 T cells [1] = experiment: In vitro Vγ9/Vδ2 T cell activation assay (PBMCs, CD69+ CD25+ by flow cytometry); format: cell-based, human; conditions: for EC50: Homo sapiens, T-cell, read-out: EC50 (activation of Vγ9/Vδ2 T cells); for Activation of Vγ9/Vδ2 T cells at the highest concentration studied: 100 μM compared with 10 μM
Description: Subsequently, we studied the ability of these HMBP phosphonodiamidate ProPAgens to activate Vγ9/Vδ2 T cells and elicit their lysis of cancer cells in vitro. For this, peripheral blood mononuclear cells (PBMCs) derived from healthy donors and containing Vγ9/Vδ2 T cells were incubated with increasing concentrations of zoledronate or phosphonodiamidate HMBP ProPAgens 9a–d and 14a–d (up to 100 μM) (Fig. 4). Peripheral blood γδ T cells lack appreciable levels of surface CD69 or CD25 under steady-state conditions, but TCR stimulation upregulates both T cell activation markers.[6] Thus, PAg-responsive Vγ9/Vδ2 T cells were then assessed for the upregulation of CD69 and CD25.
Fig. 4 In vitro phosphonodiamidate ProPAgen-mediated activation of Vγ9/Vδ2 T cells, following overnight incubation with zoledronate, and HMBP ProPAgens 9a–d and 14a–d. Levels of activation are represented as % of Vγ9/Vδ2 T cells that are CD69+ CD25+. Data is shown as mean ± SE (n = 4). (A) Activation of Vγ9/Vδ2 stimulated by phosphonodiamidate ProPAgens 9a–d. (B) Activation of Vγ9/Vδ2 stimulated by ProPAgens 14a–d. (C) Activation of Vγ9Vδ2 stimulated by zoledronate (Zol). (D) EC50 values were calculated using GraphPad Prism v9 based on the results of the activation assay.
As for the activation of Vγ9/Vδ2 T cells by the phosphonodiamidate ProPAgens (9a–d and 14a–d), these were initially tested using a concentration range from […] to 100 μM (Fig. 4A and B).
Healthy donor peripheral blood mononuclear cells (PBMCs) were harvested as previously described.[20] To assess the activation of Vγ9/Vδ2 T cells, PBMCs were seeded into U-bottom tissue culture-treated 96-well plates at a cell density of 500 000 cells per well. The cells were incubated with medium-only (control), in the presence of zoledronate at 10 pM to 100 μM, and with HMBP ProPAgens initially at 10 pM to 100 μM, and then at 1 aM to 100 μM for compounds 9d and 14d in a separate experiment. The cells were incubated at 37 °C/5% CO2 overnight, and stained by flow cytometry for the following markers: viability (Zombie Aqua 1 : 400), CD3 (BV421 1 : 100), CD8 (BV650 1 : 200), Vγ9 (PEcy5 1 : 400), Vδ2 (APC 1 : 200), CD69 (PE 1 : 25), CD25 (FITC 1 : 100). The samples were acquired via LSRFortessa X20 (BD Biosciences), and the data obtained were analyzed using FlowJo v10 and GraphPad Prism v9 software.

T24 cells = experiment: Europium-based (DELFIA) cytotoxicity assay: Vγ9/Vδ2 T cell killing of drug-treated T24 cells; set-up: species or system human; conditions: 10 nM ProPAgen for 2 h versus 10 μM zoledronate; effector : target 80 : 1, 1 h
Description: Encouraged by the potency and specificity of our HMBP phosphonodiamidate ProPAgens, especially 9d and 14d, we subsequently studied their ability to sensitize the urinary bladder carcinoma cell line T24 for targeted killing by in vitro expanded Vγ9/Vδ2 T cells (Fig. 5). In brief, T24 cells were incubated in PBS containing 10 μM zoledronate or the indicated HMBP phosphonodiamidate ProPAgens for a period of 2 h. A positive control for cell death (target cells incubated with 10% v/v DELFIA lysis buffer) and media-only treated control (no drug) was also included. The cells were then washed and cocultured with ex vivo expanded Vγ9/Vδ2 T cells for 1 h at 80 : 1 effector : target ratio, and the level of killing of T24 cells was then measured via time-resolved fluorescence.
Fig. 5 Cytotoxicity of Vγ9/Vδ2 T cells toward the phosphonodiamidate ProPAgen-treated T24 cells. % killing of T24 cells was calculated with this formula: [(experimental release − spontaneous release)/(maximal release − spontaneous release)] × 100. […]
To assess the level of killing of drug-treated and untreated tumour cells, a Europium-based cytotoxicity assay was performed (DELFIA, Perkin Elmer) as described elsewhere.[47] […] Time-resolved fluorescence was then measured using a PHERAstar microplate reader (BMG Labtech). […] The data were processed and analysed using Microsoft Excel and GraphPad Prism v9 software.

Vγ9/Vδ2 T cells [2] = conditions: read-out: EC50 (activator of Vγ9/Vδ2 T cells), cited from earlier work
[3] = Fig. 1A legend, no reference given

SMILES | EC50 (Vγ9/Vδ2 T cells [1]) [nM] | EC50 (Vγ9/Vδ2 T cells [2]; [3]) [nM] | other results
COC(=O)[C@H](C)NP(=O)(N[C@@H](C)C(=O)OC)C(F)(F)C/C=C(\C)CO [9a, Dimethyl 2,2′-((((E)-1,1-difluoro-5-hydroxy-4-methylpent-3-en-1-yl)phosphoryl)bis(azanediyl))(2S,2′S)-dipropionate] | 191 | – | –
C/C(=C\CC(F)(F)P(=O)(N[C@@H](C)C(=O)OC(C)(C)C)N[C@@H](C)C(=O)OC(C)(C)C)CO [9c, Di-tert-butyl 2,2′-((((E)-1,1-difluoro-5-hydroxy-4-methylpent-3-en-1-yl)phosphoryl)bis(azanediyl))(2S,2′S)-dipropionate] | 1500 | – | –
C/C(=C\CC(F)(F)P(=O)(N[C@@H](C)C(=O)OCc1ccccc1)N[C@@H](C)C(=O)OCc1ccccc1)CO [9d, Dibenzyl 2,2′-((((E)-1,1-difluoro-5-hydroxy-4-methylpent-3-en-1-yl)phosphoryl)bis(azanediyl))(2S,2′S)-dipropionate] | – | – | Activation of Vγ9/Vδ2 T cells at the highest concentration studied (Vγ9/Vδ2 T cells [1]): less than that achieved with 10 μM; sensitizing effect for killing of T24 cells by Vγ9/Vδ2 T cells (T24 cells): much more potent
C/C(=C\CCP(=O)(N[C@@H](C)C(=O)OC(C)C)N[C@@H](C)C(=O)OC(C)C)CO [14b, Diisopropyl 2,2′-((((E)-5-hydroxy-4-methylpent-3-en-1-yl)phosphoryl)bis(azanediyl))(2S,2′S)-dipropionate] | 87 | – | –
C/C(=C\CCP(=O)(N[C@@H](C)C(=O)OC(C)(C)C)N[C@@H](C)C(=O)OC(C)(C)C)CO [14c, Di-tert-butyl 2,2′-((((E)-5-hydroxy-4-methylpent-3-en-1-yl)phosphoryl)bis(azanediyl))(2S,2′S)-dipropionate] | 6100 | – | –
C/C(=C\CCP(=O)(N[C@@H](C)C(=O)OCc1ccccc1)N[C@@H](C)C(=O)OCc1ccccc1)CO [14d, Dibenzyl 2,2′-((((E)-5-hydroxy-4-methylpent-3-en-1-yl)phosphoryl)bis(azanediyl))(2S,2′S)-dipropionate] | 27 | – | Activation of Vγ9/Vδ2 T cells at the highest concentration studied (Vγ9/Vδ2 T cells [1]): less than that achieved with 10 μM; sensitizing effect for killing of T24 cells by Vγ9/Vδ2 T cells (T24 cells): much more potent
C/C(=C\COP(=O)(O)O)CO [HMBP, (E)-4-Hydroxy-3-methylbut-2-enyl monophosphate] | – | – | EC50 (Vγ9/Vδ2 T cells [2]): 4000 nM
C/C(=C\COP(=O)(O)OP(=O)(O)O)CO [HMBPP, (E)-4-hydroxy-3-methyl-but-2-enyl pyrophosphate] | – | 0.06 to 0.5 | –
C=C(C)CCOP(=O)(O)OP(=O)(O)O [IPP, isopentenyl pyrophosphate] | – | 1000 to 10000 | –
O=P(O)(O)C(O)(Cn1ccnc1)P(=O)(O)O [Zoledronate, zoledronate] | – | 3 to 3000 | –
O=P(O)(O)C(O)(Cc1cccnc1)P(=O)(O)O [risedronate] | – | 80 to 5000 | –
